According to US20060069132A1, “Azolecarboxamide herbicides” (priority 2004, published 2006):

Columns and labels:
barnyardgrass [1] = experiment: Test B flooded paddy test; format: in vivo, Echinochloa crus-galli; settings: 1000 g ai/ha, visual rating, scale 0 to 100 (0 no effect, 100 complete control), 13 to 15 days
How it was run: (§1)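 Visual control ratings, 0–100 versus untreated controls, taken after 13 to 15 days in the greenhouse. Blackgrass received a postemergence spray at the 1- to 4-leaf stage (2–18 cm); ducksalad, umbrella sedge and barnyardgrass were flooded-paddy treated at 2 leaves.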

large crabgrass = experiment: Test B pre-/postemergence herbicide test; format: in vivo, Digitaria sanguinalis; settings: for Crabgrass, Large plant response rating: postemergence, scale 0 (no effect) to 100 (complete control)
How it was run: (§2)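 Seeds were planted and treated preemergence with compounds formulated in a non-phytotoxic solvent mixture containing surfactant, while plants at the 1- to 4-leaf stage (2 to 18 cm) received postemergence sprays. Flooded paddy plants were grown to the 2-leaf stage. After 13 to 15 days in a greenhouse, injury was visually rated 0–100 against untreated controls.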

corn = experiment: Test B pre-/postemergence herbicide test; format: in vivo, Zea mays; settings: for Corn plant response rating: postemergence, scale 0 (no effect) to 100 (complete control)
How it was run: as §2

rice [2] = experiment: Test B flooded paddy test; format: in vivo, Oryza sativa; settings: 1000 g ai/ha, visual rating, scale 0 to 100 (0 no effect, 100 complete control), 13 to 15 days
How it was run: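 Visual ratings, 0 (no effect) to 100 (complete control), made versus controls after 13–15 d greenhouse. Paddy plants treated at 2-leaf stage; postemergence plants at 1- to 4-leaf stage, 2–18 cm tall.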

Surinam grass = experiment: Test B pre-/postemergence herbicide test; format: in vivo, Urochloa decumbens; settings: for Surinam Grass plant response rating: postemergence, scale 0 (no effect) to 100 (complete control)
How it was run: as §2

rice [3] = experiment: Test B pre-/postemergence herbicide test; format: in vivo, Oryza sativa; settings: 0 = no effect, 100 = complete control, preemergence
How it was run: as §2

rice [4] = experiment: Test C flooded paddy test; format: in vivo, Oryza sativa
How it was run: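 Injury scored visually against controls on a 0 (no effect) to 100 (complete control) scale, 12 to 14 days after treatment in greenhouse. Flooded paddy plants treated at 2-leaf stage; postemergence plants at 1- to 4-leaf stage, 2 to 18 cm tall.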

lambsquarters = experiment: Test B pre-/postemergence herbicide test; format: in vivo, Chenopodium album; settings: for Lambsquarters plant response rating: postemergence, scale 0 (no effect) to 100 (complete control)
How it was run: as §2

[5] = system: smallflower umbrella sedge; experiment: Test C flooded paddy test; format: in vivo, Cyperus difformis
cocklebur = experiment: Test B pre-/postemergence herbicide test; format: in vivo, Xanthium strumarium; settings: for Cocklebur plant response rating: postemergence, scale 0 (no effect) to 100 (complete control)
How it was run: (§3)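 Response was scored visually 13 to 15 days after treatment against untreated greenhouse controls, 0 meaning no effect and 100 complete control. Formulations (solvent mixture plus surfactant) went onto soil after planting, onto foliage of 1- to 4-leaf plants, and onto 2-leaf plants in a flooded paddy set including rice and barnyardgrass.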

wild oat = experiment: Test B postemergence herbicide test; format: in vivo, Avena fatua; settings: postemergence, visual rating, scale 0 (no effect) to 100 (complete control)
How it was run: (§4)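 After treating 2-leaf paddy plants or 2–18 cm postemergence plants (1 to 4 leaves) with formulated chemical, researchers kept them in a greenhouse for 13–15 days. Effects were judged visually versus controls: 0 indicates none, 100 total control.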

ducksalad [6] = experiment: Test C flooded paddy test; format: in vivo, Heteranthera limosa
blackgrass = experiment: Test B postemergence herbicide test; format: in vivo, Alopecurus myosuroides; settings: postemergence, visual rating, scale 0 (no effect) to 100 (complete control)
How it was run: as §1

[7] = system: small flower umbrella sedge; experiment: Test B flooded paddy test; format: in vivo, Cyperus difformis; settings: 1000 g ai/ha, visual rating, scale 0 to 100 (0 no effect, 100 complete control), 13 to 15 days
How it was run: as §1

ducksalad [8] = experiment: Test B flooded paddy test; format: in vivo, Heteranthera limosa; settings: 1000 g ai/ha, visual rating, scale 0 to 100 (0 no effect, 100 complete control), 13 to 15 days
How it was run: as §1

wheat = experiment: Test B postemergence herbicide test; format: in vivo, Triticum aestivum; set-up: key to Wheat plant response rating: 0 = no effect, 100 = complete control; settings: postemergence, visual rating, scale 0 (no effect) to 100 (complete control)
How it was run: as §4

barnyardgrass [9] = experiment: Test C flooded paddy test; format: in vivo, Echinochloa crus-galli
How it was run: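 Weeds and wheat were sprayed after emergence, at a height of 2 to 18 cm (1–4 leaves), and paddy barnyardgrass was flooded and treated at two leaves. Assessment took place 12–14 days later in the greenhouse on a 0-to-100 visual control scale. A dash means no result was obtained.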

giant foxtail = experiment: Test B pre-/postemergence herbicide test; format: in vivo, Setaria faberi; settings: for Foxtail, Giant plant response rating: postemergence, scale 0 (no effect) to 100 (complete control)
How it was run: as §2

velvetleaf = experiment: Test B pre-/postemergence herbicide test; format: in vivo, Abutilon theophrasti; settings: for Velvetleaf plant response rating: postemergence, scale 0 (no effect) to 100 (complete control)
How it was run: as §2

morningglory = experiment: Test B pre-/postemergence herbicide test; format: in vivo, Ipomoea coccinea; settings: for Morningglory plant response rating: postemergence, scale 0 (no effect) to 100 (complete control)
How it was run: as §3

pigweed = experiment: Test B pre-/postemergence herbicide test; format: in vivo, Amaranthus retroflexus; settings: for Pigweed plant response rating: postemergence, scale 0 (no effect) to 100 (complete control)
How it was run: as §2

barnyardgrass [10] = experiment: Test B pre-/postemergence herbicide test; format: in vivo, Echinochloa crus-galli; settings: for Barnyardgrass plant response rating: postemergence, scale 0 (no effect) to 100 (complete control)
How it was run: as §3

[11] = 125 g ai/ha, 0 = no effect, 100 = complete control, preemergence
[12] = 500 g ai/ha, visual rating, 0 = no effect, 100 = complete control, preemergence
[13] = 62 g ai/ha, scale 0 to 100 (0 no effect, 100 complete control)
[14] = 125 g ai/ha, scale 0 to 100 (0 no effect, 100 complete control)
[15] = 250 g ai/ha, scale of 0 to 100, 0 is no effect, 100 is complete control
[16] = 500 g ai/ha, visual rating after 12 to 14 days, scale 0 to 100 (0 no effect, 100 complete control)

CCc1nc(C(C)(C)C)sc1C(=O)Nc1cccc(C(=O)N(C)CC)c1 [Compound 229]
0: Cocklebur plant response rating (0 to 100 scale) (cocklebur; [11]) | Ducksalad plant response rating (ducksalad [6]; [13]) | Ducksalad plant response rating (ducksalad [6]; [14])
100: Plant response rating, Crabgrass, Large (large crabgrass; [12]) | Plant response rating, Lambsquarters (lambsquarters; [12]) | Plant response rating, Velvetleaf (velvetleaf; [12]) | Pigweed plant response rating (0 to 100 scale) (pigweed; [11]) | Plant response rating, Pigweed (pigweed; [12])
85: Plant response rating, Ducksalad (ducksalad [6]; [16])
50: Oat, Wild plant response rating (wild oat; 500 g ai/ha) | Foxtail, Giant plant response rating (0 to 100 scale) (giant foxtail; [11]) | Foxtail, Giant plant response rating (giant foxtail; 500 g ai/ha, visual rating) | Barnyardgrass plant response rating (0 to 100 scale) (barnyardgrass [10]; [11]) | Barnyardgrass plant response rating (barnyardgrass [10]; 500 g ai/ha, visual rating)
40: Crabgrass, Large plant response rating (0 to 100 scale) (large crabgrass; [11]) | Plant response rating, Corn (corn; [12]) | Surinam Grass plant response rating (0 to 100 scale) (Surinam grass; [11]) | Sedge, Umbrella plant response rating [5, 14] | Plant response rating, Cocklebur (cocklebur; [12]) | Wheat plant response rating (wheat; 500 g ai/ha) | Barnyardgrass plant response rating (barnyardgrass [9]; [13]) | Velvetleaf plant response rating (0 to 100 scale) (velvetleaf; [11])
35: Rice plant response rating (rice [4]; [13]) | Rice plant response rating (rice [4]; [14])
45: Barnyardgrass plant response rating (barnyardgrass [9]; [14])
80: Plant response rating, Surinam Grass (Surinam grass; [12]) | Rice plant response rating (rice [4]; [15]) | Lambsquarters plant response rating (lambsquarters; 500 g ai/ha, visual rating) | Sedge, Umbrella plant response rating [5, 15] | Plant response rating, Sedge, Umbrella [5, 16] | Ducksalad plant response rating (ducksalad [6]; [15]) | Sedge, Umbrella plant response rating [7] | Plant response rating, Barnyardgrass (barnyardgrass [9]; [16]) | Plant response rating, Foxtail, Giant (giant foxtail; [12]) | Pigweed plant response rating (pigweed; 500 g ai/ha, visual rating)
60: Velvetleaf plant response rating (velvetleaf; 125 g ai/ha, visual rating) | Pigweed plant response rating (pigweed; 125 g ai/ha, visual rating)
20: Crabgrass, Large plant response rating (large crabgrass; 500 g ai/ha, visual rating) | Corn plant response rating (corn; 500 g ai/ha, visual rating) | Surinam Grass plant response rating (Surinam grass; 500 g ai/ha, visual rating) | Cocklebur plant response rating (cocklebur; 125 g ai/ha, visual rating) | Plant response rating, Morningglory (morningglory; [12]) | Barnyardgrass plant response rating (barnyardgrass [10]; 125 g ai/ha, visual rating)
90: Barnyardgrass plant response rating (barnyardgrass [1]) | Rice plant response rating (rice [2]) | Plant response rating, Rice (rice [4]; [16]) | Lambsquarters plant response rating (0 to 100 scale) (lambsquarters; [11]) | Ducksalad plant response rating (ducksalad [8]) | Plant response rating, Barnyardgrass (barnyardgrass [10]; [12])
70: Plant response rating, Rice (rice [3]; 500 g ai/ha, visual rating) | Lambsquarters plant response rating (lambsquarters; 125 g ai/ha, visual rating) | Cocklebur plant response rating (cocklebur; 500 g ai/ha, visual rating) | Velvetleaf plant response rating (velvetleaf; 500 g ai/ha, visual rating) | Morningglory plant response rating (morningglory; 500 g ai/ha, visual rating)
10: Crabgrass, Large plant response rating (large crabgrass; 125 g ai/ha, visual rating) | Corn plant response rating (0 to 100 scale) (corn; [11]) | Corn plant response rating (corn; 125 g ai/ha, visual rating) | Surinam Grass plant response rating (Surinam grass; 125 g ai/ha, visual rating) | Morningglory plant response rating (0 to 100 scale) (morningglory; [11]) | Morningglory plant response rating (morningglory; 125 g ai/ha, visual rating)
75: Barnyardgrass plant response rating (barnyardgrass [9]; [15])
30: Rice plant response rating (0 to 100 scale) (rice [3]; 125 g ai/ha) | Sedge, Umbrella plant response rating [5, 13] | Oat, Wild plant response rating (wild oat; 125 g ai/ha) | Blackgrass plant response rating (blackgrass; 125 g ai/ha) | Blackgrass plant response rating (blackgrass; 500 g ai/ha) | Wheat plant response rating (wheat; 125 g ai/ha) | Foxtail, Giant plant response rating (giant foxtail; 125 g ai/ha, visual rating)
